In brackets after ≈: the same amount, converted by molar mass.
Tests used:
[1] = Total antioxidant capacity (TAC), method of Prieto et al.
Protocol: (§1) All in vitro biological activities of the limonoids-rich extract and the isolated compounds were assayed in triplicate at three different concentrations (50, 100, and 200 µg/mL).
The method proposed by Prieto et al.[30] was used to determine the total antioxidant capacity (TAC) expressed as mg […] equivalent per gram weight, using ascorbic acid at the same concentrations as a standard.

[2] = Iron reducing power (IRP), method of Oyaizu
[3] = molecular target: α-amylase; assay: α-Amylase enzyme inhibition assay; type: biochemical; details: for IC50 against α-amylase: Fig. 2b
Protocol: as §1
(§2) The IC50 of each tested sample was determined by plotting a curve using a series of sample concentrations against the percent of enzyme inhibition.

[4] = system: α-amylase; assay: Native electrophoretic α-amylase isoenzyme pattern (PAGE); type: biochemical; details: standard enzyme treated with 100 µg/mL
Protocol: (§3) The relative mobility (Rf), band quantity (Qty) and band percent (B%) of the electrophoretically detected isoenzyme types on the PAGE plate were determined using the Quantity One software program (version 4.6.2). The equation proposed by Nei and Li[39] was used to calculate the percentages of similarity index (SI%) and physiological difference (Diff%).

[5] = DPPH radical scavenging activity; details: for IC50 against DPPH radical: Fig. 2a
Protocol: as §1
The 1,1-Diphenyl-2-picryl-hydrazyl (DPPH) radical scavenging activity was evaluated using the method described by Rahman et al.[32]. Ascorbic acid was used as a positive control at the same concentrations. The inhibition percentage of the DPPH free radical was calculated. The median inhibitory concentration (IC50) of each tested sample was determined by plotting a curve using a series of sample concentrations against the percentage of DPPH inhibition.

[6] = molecular target: α-glucosidase; assay: α-Glucosidase enzyme inhibition assay; type: biochemical; details: for IC50 against α-glucosidase: Fig. 2b
Protocol: as §1, §2

[7] = ABTS radical scavenging assay; details: for IC50 against ABTS radical: Fig. 2a
Protocol: as §1
The ABTS scavenging capacities of the samples were compared with that of ascorbic acid. The percent inhibition of the ABTS radical was calculated. The IC50 of each tested sample was determined by plotting a curve using a series of sample concentrations against the percent of ABTS inhibition.

[8] = Nitric oxide (NO) radical scavenging activity (Griess Illosvory reagent); details: for IC50 against NO radical: Fig. 2a
Protocol: as §1
The nitric oxide (NO) radical scavenging activity was estimated by the reaction with Griess Illosvory reagent based on the method proposed by Chakraborthy[34]. The NO scavenging capacities of the samples were compared with that of ascorbic acid. The percent inhibition of the NO radical was calculated. The IC50 of each tested sample was determined by plotting a curve using a series of sample concentrations against the percent of NO inhibition.

[9] = system: α-glucosidase; assay: SDS-PAGE electrophoretic α-glucosidase pattern; type: biochemical; details: 100 µg/mL
Protocol: as §3

Question: For CC1(C)OC(=O)C=C[C@]2(C)[C@H]3CC[C@@](C)([C@@H](O[C@@H]4O[C@H](CO)[C@@H](O)[C@H](O)[C@H]4O)c4ccoc4)[C@@]4(O[C@@H]4C(=O)O)[C@]3(C)C(=O)C[C@@H]12 [Cpd4, obacunone 17-O-β-D-glucopyranoside], which TAC ([1]; sample concentration 50 µg/mL) is on record?
Answer: 27.18 ± 0.07 mg gallic acid/g

Question: What about the TAC ([1]; sample concentration 100 µg/mL) of the same compound?
Answer: 48.37 ± 0.13 mg gallic acid/g

Question: And the TAC ([1]; sample concentration 200 µg/mL)?
Answer: 86.10 ± 0.23 mg gallic acid/g

Question: And the IRP ([2]; sample concentration 50 µg/mL)?
Answer: 22.03 ± 0.07 µg/mL

Question: What about the IRP ([2]; sample concentration 100 µg/mL) of the same compound?
Answer: 39.20 ± 0.13 µg/mL

Question: What about the IRP ([2]; sample concentration 200 µg/mL) of the same compound?
Answer: 69.78 ± 0.23 µg/mL

Question: What about the “IC50 against α-amylase” value [3] of the same compound?
Answer: 3.61 ± 0.02 µg/mL (≈ 5.69 µM)

Question: And the “α-Amylase Inhibition (%)” value ([3]; sample concentration 50 µg/mL)?
Answer: 18.93 ± 0.07%

Question: And the “α-Amylase Inhibition (%)” value ([3]; sample concentration 100 µg/mL)?
Answer: 33.69 ± 0.13%

Question: And the “α-Amylase Inhibition (%)” value ([3]; sample concentration 200 µg/mL)?
Answer: 59.96 ± 0.23%

Question: And the “Change in electrophoretic α-amylase isoenzyme pattern” value [4]?
Answer: severe abnormalities

Question: What about the “Diff% (physiological difference) of electrophoretic α-amylase pattern from the standard enzyme” value [4] of the same compound?
Answer: 100.00%

Question: What about the “SI% (similarity index) of electrophoretic α-amylase pattern to the standard enzyme” value [4] of the same compound?
Answer: 0.00%

Question: And the “IC50 against DPPH radical” value [5]?
Answer: 5.12 ± 0.02 µg/mL (≈ 8.07 µM)

Question: What about the “DPPH Inhibition (%)” value ([5]; sample concentration 50 µg/mL) of the same compound?
Answer: 23.63 ± 0.06%

Question: What about the “DPPH Inhibition (%)” value ([5]; sample concentration 100 µg/mL) of the same compound?
Answer: 42.06 ± 0.11%

Question: What about the “DPPH Inhibition (%)” value ([5]; sample concentration 200 µg/mL) of the same compound?
Answer: 74.87 ± 0.20%

Question: What about the “IC50 against α-glucosidase” value [6] of the same compound?
Answer: 2.46 ± 0.02 µg/mL (≈ 3.88 µM)

Question: And the “α-Glucosidase Inhibition (%)” value ([6]; sample concentration 50 µg/mL)?
Answer: 14.78 ± 0.07%

Question: And the “α-Glucosidase Inhibition (%)” value ([6]; sample concentration 100 µg/mL)?
Answer: 26.30 ± 0.13%

Question: And the “α-Glucosidase Inhibition (%)” value ([6]; sample concentration 200 µg/mL)?
Answer: 46.81 ± 0.23%

Question: What about the “IC50 against ABTS radical” value [7] of the same compound?
Answer: 4.53 ± 0.02 µg/mL (≈ 7.14 µM)

Question: What about the “ABTS Inhibition (%)” value ([7]; sample concentration 50 µg/mL) of the same compound?
Answer: 22.03 ± 0.07%

Question: And the “ABTS Inhibition (%)” value ([7]; sample concentration 100 µg/mL)?
Answer: 39.20 ± 0.13%

Question: And the “ABTS Inhibition (%)” value ([7]; sample concentration 200 µg/mL)?
Answer: 69.78 ± 0.23%

Question: What about the “IC50 against NO radical” value [8] of the same compound?
Answer: 5.70 ± 0.03 µg/mL (≈ 8.98 µM)

Question: And the “NO Inhibition (%)” value ([8]; sample concentration 50 µg/mL)?
Answer: 18.48 ± 0.06%

Question: What about the “NO Inhibition (%)” value ([8]; sample concentration 100 µg/mL) of the same compound?
Answer: 32.90 ± 0.11%

Question: What about the “NO Inhibition (%)” value ([8]; sample concentration 200 µg/mL) of the same compound?
Answer: 58.55 ± 0.20%

Question: And the “Diff% (decrease in the quantity of the identified α-glucosidase band)” value [9]?
Answer: 64.41%

Question: What about the “Qty (band quantity) of the α-glucosidase band” value [9] of the same compound?
Answer: 6.64

Question: For CC1(C)OC2CC(=O)OCC23C1CC(=O)C1(C)C3CC[C@@](C)([C@@H](O[C@@H]2O[C@H](CO)[C@@H](O)[C@H](O)[C@H]2O)c2ccoc2)C12OC2C(=O)O (stereo partly drawn) [Cpd5, limonin 17-O-β-D-glucopyranoside], which TAC ([1]; sample concentration 50 µg/mL) is on record?
Answer: 27.45 ± 0.07 mg gallic acid/g

Question: What about the TAC ([1]; sample concentration 100 µg/mL) of the same compound?
Answer: 48.86 ± 0.13 mg gallic acid/g

Question: And the TAC ([1]; sample concentration 200 µg/mL)?
Answer: 86.96 ± 0.23 mg gallic acid/g

Question: What about the IRP ([2]; sample concentration 50 µg/mL) of the same compound?
Answer: 22.30 ± 0.07 µg/mL

Question: What about the IRP ([2]; sample concentration 100 µg/mL) of the same compound?
Answer: 39.69 ± 0.13 µg/mL

Question: What about the IRP ([2]; sample concentration 200 µg/mL) of the same compound?
Answer: 70.65 ± 0.23 µg/mL

Question: What about the “IC50 against α-amylase” value [3] of the same compound?
Answer: 3.56 ± 0.02 µg/mL (≈ 5.47 µM)

Question: What about the “α-Amylase Inhibition (%)” value ([3]; sample concentration 50 µg/mL) of the same compound?
Answer: 19.20 ± 0.07%

Question: What about the “α-Amylase Inhibition (%)” value ([3]; sample concentration 100 µg/mL) of the same compound?
Answer: 34.17 ± 0.13%

Question: What about the “α-Amylase Inhibition (%)” value ([3]; sample concentration 200 µg/mL) of the same compound?
Answer: 60.82 ± 0.23%

Question: What about the “Change in electrophoretic α-amylase isoenzyme pattern” value [4] of the same compound?
Answer: severe abnormalities

Question: And the “Diff% (physiological difference) of electrophoretic α-amylase pattern from the standard enzyme” value [4]?
Answer: 100.00%

Question: And the “SI% (similarity index) of electrophoretic α-amylase pattern to the standard enzyme” value [4]?
Answer: 0.00%

Question: What about the “IC50 against DPPH radical” value [5] of the same compound?
Answer: 5.07 ± 0.02 µg/mL (≈ 7.79 µM)

Question: And the “DPPH Inhibition (%)” value ([5]; sample concentration 50 µg/mL)?
Answer: 23.87 ± 0.06%

Question: What about the “DPPH Inhibition (%)” value ([5]; sample concentration 100 µg/mL) of the same compound?
Answer: 42.48 ± 0.11%

Question: And the “DPPH Inhibition (%)” value ([5]; sample concentration 200 µg/mL)?
Answer: 75.62 ± 0.20%

Question: And the “IC50 against α-glucosidase” value [6]?
Answer: 2.42 ± 0.02 µg/mL (≈ 3.72 µM)

Question: And the “α-Glucosidase Inhibition (%)” value ([6]; sample concentration 50 µg/mL)?
Answer: 15.05 ± 0.07%

Question: And the “α-Glucosidase Inhibition (%)” value ([6]; sample concentration 100 µg/mL)?
Answer: 26.78 ± 0.13%

Question: What about the “α-Glucosidase Inhibition (%)” value ([6]; sample concentration 200 µg/mL) of the same compound?
Answer: 47.67 ± 0.23%

Question: And the “IC50 against ABTS radical” value [7]?
Answer: 4.48 ± 0.02 µg/mL (≈ 6.89 µM)

Question: What about the “ABTS Inhibition (%)” value ([7]; sample concentration 50 µg/mL) of the same compound?
Answer: 22.30 ± 0.07%

Question: What about the “ABTS Inhibition (%)” value ([7]; sample concentration 100 µg/mL) of the same compound?
Answer: 39.69 ± 0.13%

Question: What about the “ABTS Inhibition (%)” value ([7]; sample concentration 200 µg/mL) of the same compound?
Answer: 70.65 ± 0.23%

Question: What about the “IC50 against NO radical” value [8] of the same compound?
Answer: 5.62 ± 0.03 µg/mL (≈ 8.64 µM)

Question: What about the “NO Inhibition (%)” value ([8]; sample concentration 50 µg/mL) of the same compound?
Answer: 18.72 ± 0.06%

Question: What about the “NO Inhibition (%)” value ([8]; sample concentration 100 µg/mL) of the same compound?
Answer: 33.32 ± 0.11%

Question: What about the “NO Inhibition (%)” value ([8]; sample concentration 200 µg/mL) of the same compound?
Answer: 59.30 ± 0.20%

Question: And the “Diff% (decrease in the quantity of the identified α-glucosidase band)” value [9]?
Answer: 69.27%

Question: And the “Qty (band quantity) of the α-glucosidase band” value [9]?
Answer: 5.73

Reference: PMC11401861, “Assessment of the in vitro anti-diabetic activity with molecular dynamic simulations of limonoids isolated from Adalia lemon peels” (Scientific Reports, 2024)
